This is an account of results in US4005194A, “Treatment of prostatic hyperplasia” (Abbott Laboratories, priority 1975, dated 1977).

One series relates to Sprague Dawley male rat. The note with it: in vivo. How it is done:
Ten Sprague Dawley male rat 22 days of age and weighing 45-50 grams, were randomly divided into two groups. One group received the treatment described below. After 57 days of treatment, the animals from the non-treatment control group and those from the treatment group were sacrificed. The various organs were removed, trimmed of excess tissue and weighed. Body weights were taken weekly. Group I received no treatment; Group II received 10 μg of Compound N twice each day. The results are shown in Table I with each entry showing the mean value of the respective group.

The test system of series [1] is Male rats. The note with it: rat, in vivo. How it is done:
In an experiment similar to that of Example 5 with Groups I and III being treated as shown, but Group II being treated like Group III except with only 1 μg of Compound N, the test was continued for 51 days, starting with 22-day old male rats, 5 animals per group. The animals were sacrificed on day 52. […] Another three groups of 5 male rats were treated in the identical fashion, but the treatment was extended from the age of 22 days to day 138 (116 days).

In series [2] the test system is Male rats. The note with it: rat, in vivo. This is another data set of the same source.
Description: Male rats, 22 days of age, were divided into 3 groups of five animals each. The 3 groups were treated exactly as described in Example 3, but the experiment was continued for 153 days. After 115 days, these animals were bred to untreated, cycling females (each male was caged with 2 cycling females in pro-estrus for 3 consecutive days, on 3-5 separate occasions).

In the case of `CCNC(=O)[C@@H]1CCCN1C(=O)[C@H](CCCNC(=N)N)NC(=O)[C@H](CC(C)C)NC(=O)[C@@H](CC(C)C)NC(=O)[C@H](Cc1ccc(O)cc1)NC(=O)[C@H](CO)NC(=O)[C@H](Cc1c[nH]c2ccccc12)NC(=O)[C@H](Cc1c[nH]cn1)NC(=O)[C@@H]1CCC(=O)N1` [Compound N], the “Effect on normal weight gain and growth” value in the series on Sprague Dawley male rat is reported as “essentially no effect”. Moreover, in the series with Male rats [1], the “Outward signs or organic changes over the control group” value is “None of the treated animals in this experiment showed any outward signs or organic changes”. For the same molecule, in the series with Male rats [2], the “Breeding index (percentage of successful impregnations vs. opportunities to breed)” value is given as 23%, the “Course of resulting pregnancies” value is reported as “progressed normal”, the Number of pups amounted to 10.4 and the “Weight of pups on day 1” value is given as 6.9 g. In addition, in the series with Male rats [2], the “Weight of pups on day 4” value stood at 11.7 g, the “Weight of pups on day 11” value is recorded as 23.5 g and the “Weight of pups on day 21” value was 44.3 g.
